From the NIST ThermoML archive (doi:10.1016/j.jct.2015.06.009)

Test: xn = mol fraction of the nth substance listed
Settings: 101 kPa, Liquid; for speed of sound: Frequency=3 MHz, Sing-around technique in a fixed-path interferometer; for mass density: Vibrating tube method

COC(C)(C)C [2-methoxy-2-methylpropane] + CCCCO
Settings | mass density, 298.15 K [kg/m3] | mass density, 308.15 K [kg/m3] | mass density, 318.15 K [kg/m3] | mass density, 328.15 K [kg/m3] | speed of sound, 298.15 K [m/s] | speed of sound, 308.15 K [m/s] | speed of sound, 318.15 K [m/s] | speed of sound, 328.15 K [m/s]
x1 = 0.03132 | 803.61 | 795.86 | 788.07 | 780.19 | 1233.9 | 1200 | 1166.3 | 1132.8
x1 = 0.06569 | 801.27 | 793.42 | 785.54 | 777.56 | 1227 | 1192.7 | 1158.4 | 1124.4
x1 = 0.1315 | 796.77 | 788.76 | 780.66 | 772.49 | 1213.6 | 1178.4 | 1143 | 1108.2
x1 = 0.193 | 792.46 | 784.25 | 775.99 | 767.64 | 1200.7 | 1164.5 | 1128.5 | 1092.7
x1 = 0.2647 | 787.54 | 779.11 | 770.65 | 762.09 | 1185.7 | 1148.6 | 1111.7 | 1075
x1 = 0.3401 | 782.26 | 773.61 | 764.93 | 756.13 | 1170.3 | 1131.9 | 1094 | 1056.4
x1 = 0.3916 | 778.65 | 769.83 | 761.01 | 752.07 | 1159.3 | 1120.5 | 1082 | 1043.8
x1 = 0.4652 | 773.54 | 764.48 | 755.43 | 746.28 | 1144.3 | 1104.6 | 1065.2 | 1026.3
x1 = 0.5451 | 768.04 | 758.63 | 749.33 | 739.91 | 1128.3 | 1087.4 | 1047.2 | 1007
x1 = 0.6001 | 764.05 | 754.64 | 745.19 | 735.66 | 1117.3 | 1076.1 | 1034.9 | 995.48
x1 = 0.6708 | 759.06 | 749.44 | 739.77 | 729.95 | 1103.5 | 1061.5 | 1019.5 | 978.48
x1 = 0.7347 | 754.56 | 744.74 | 734.85 | 724.9 | 1091.3 | 1048.4 | 1005.7 | 963.43
x1 = 0.7953 | 750.27 | 740.28 | 730.2 | – | 1079.5 | 1036 | 992.74 | –
x1 = 0.8755 | 744.44 | 734.2 | 723.89 | 713.5 | 1063.6 | 1019 | 974.75 | 932.29
x1 = 0.9367 | 739.95 | 729.44 | 719.05 | 708.44 | 1050.6 | 1005.4 | 960.39 | 917.28
x1 = 1 | 735.22 | 724.64 | 714.01 | 703.38 | 1036.4 | 990.57 | 944.94 | –
